The source of these data is US20260001872A1, “BENZISOTHIAZOLE COMPOUND AND APPLICATION THEREOF, AND PHARMACEUTICAL COMPOSITION AND APPLICATION THEREOF” (Picomole Therapeutics (Liaoning) Co., Ltd., priority 2022, published 2026).

Molecules are shown by their SMILES. Values joined by “and” are separate entries in the source; they are usually repeats but may differ in a detail not shown here. Equal values may be shown once. Where a name gives a salt, the structure may show the parent alone.

For series [1], the system named is premature ejaculation model in Wistar rats after PCA induction. Description: premature ejaculation model in Wistar rats after PCA induction. It is filed as in vivo. The note with it: for Actual ejaculation number / First contractive latency / First ejaculation latency / Seminal vesicle basal pressure (mmHg) / Seminal vesicle peak pressure (mmHg) / The number of seminal vesicle contractions: individual rats, within 30 min after PCA induction. Here is the method:
Male Wistar rats with body weight of about 300 g were subjected to a one-week acclimation period before the experiment began. On the day of the experiment, the animals were anesthetized with intraperitoneal (i.p.) injection of Zoletil 50 at 20 mg/kg combined with xylazine at 8 mg/kg, and then subjected to body temperature maintenance at 37° C. using a thermostatically controlled heating pad. The common carotid artery was exposed and cannulated with a PE50 catheter for real-time monitoring of arterial pressure (systolic blood pressure, diastolic blood pressure, and mean arterial pressure). The seminal vesicle and corpus cavernosum muscle of the animals were exposed. Seminal vesicle pressure and corpus cavernosum electromyographic (EMG) stabilized baseline were recorded for 10 min. In the dapoxetine group, the medications were administrated via tail vein intravenous (i.v.) injection; in the to-be-tested compound group, the to-be-tested compound was administrated orally (in the PE model group, the to-be-tested compound was substituted with vehicles); after 1 min, PCA (5 mg/kg) was intraperitoneally (i.p.) injected to induce the PE model; and recording of seminal vesicle pressure profiles and electromyographic (EMG) activity variations in the bulbocavernosus muscle continued to be performed for 30 min.
• A. The actual ejaculation number and the first ejaculation latency in animals within 30 min • B. The number of seminal vesicle contractions, the first contractive latency, basal pressure, and peak pressure within 30 min
The experimental data was represented by mean±S.E.M. and statistically analyzed by GraphPad Prism 7.0 software. One-way analysis of variance (One-way ANOVA) was used for comparison among multiple groups, and Dunnett't-test was used for statistical analysis in Post hoc test; and the comparison between two groups was statistically analyzed using Student's t-test. P<0.05 indicates a significant difference.

For series [2] the following is noted: in vivo; cited from earlier work.
[3] abbreviates: 0.125 mg/kg p.o. + PCA 5 mg/kg i.p.
Where [4] appears, read: 0.5 mg/kg p.o. + PCA 5 mg/kg i.p.
The mark [5] stands for this setting: 2 mg/kg p.o. + PCA 5 mg/kg i.p.
Where [6] appears, read: 2 mg/kg p.o. + PCA 5 mg/kg i.p., listed as A002.
Where [7] appears, read: Dapoxetine 2 mg/kg i.v. + PCA 5 mg/kg i.p., hydrochloride.
[8] abbreviates: statistical analysis, PCA-induced model.

The bioavailability is the share of a dose that reaches the circulation, judged against a reference dose that is usually intravenous.

For the molecule `c1ccc2nn(CCCCN3CCN(c4nsc5ccccc45)CC3)nc2c1` [A001], in series [1] (setting [3]), the Actual ejaculation number was 2 (2×) and 6 (2×) and 1; the “First contractive latency” value was 1278 s and 824 s and 889 s and 1207 s and 1558 s; the “First ejaculation latency” value was 1456 s and 916 s and 985 s and 1380 s and 1667 s; the “Seminal vesicle basal pressure (mmHg)” value is 5.79 mmHg and 6.18 mmHg and 6.05 mmHg and 4.78 mmHg and 3.89 mmHg. Besides, in series [1] (setting [3]), the “Seminal vesicle peak pressure (mmHg)” value is 13.46 mmHg and 16.77 mmHg and 20.06 mmHg and 11.05 mmHg and 9.81 mmHg; the “The number of seminal vesicle contractions” value (“The number” below) is 5 and 9 and 8 and 4 and 3. For the same molecule, in series [1] (setting [4]), the Actual ejaculation number is 2 (3×) and 0 (2×); the “First contractive latency” value was 1186 s and 1298 s and 1317 s and 1800 s (2×); the “First ejaculation latency” value is 1256 s and 1382 s and 1477 s and 1800 s (2×); the “Seminal vesicle basal pressure (mmHg)” value is 5.76 mmHg and 5.88 mmHg and 5.79 mmHg and 3.67 mmHg and 3.87 mmHg. For the same molecule, in series [1] (setting [4]), the “Seminal vesicle peak pressure (mmHg)” value is 11.87 mmHg and 10.66 mmHg and 9.08 mmHg and 4.86 mmHg and 5.23 mmHg; the “The number” value was 3 and 4 (2×) and 0 (2×). Besides, in series [1] (setting [5]), the Actual ejaculation number was found to be 0 and the “First ejaculation latency” value was 1800 s. In series [1] (setting [6]), the “First contractive latency” value was 1568 s and 1800 s (4×); the “Seminal vesicle basal pressure (mmHg)” value was 4.05 mmHg and 4.17 mmHg and 4.86 mmHg and 4.18 mmHg and 3.88 mmHg; the “Seminal vesicle peak pressure (mmHg)” value is 9.67 mmHg and 6.04 mmHg and 5.18 mmHg and 4.98 mmHg and 5.05 mmHg; the “The number” value was 2 and 0 (4×).

For the molecule `CN(C)[C@@H](CCOc1cccc2ccccc12)c1ccccc1` [Dapoxetine, Dapoxetine hydrochloride, reference compound], in series [1] (setting [7]), the Actual ejaculation number is 1 (2×) and 0 (2×) and 2; the “First contractive latency” value was 1448 s and 1705 s and 1800 s and 1749 s and 866 s; the “First ejaculation latency” value was 1558 s and 1800 s (2×) and 1256 s and 967 s; the “Seminal vesicle basal pressure (mmHg)” value is 5.16 mmHg and 4.97 mmHg and 5.37 mmHg and 5.88 mmHg and 4.96 mmHg. Also, in series [1] (setting [7]), the “Seminal vesicle peak pressure (mmHg)” value is 6.89 mmHg and 8.1 mmHg and 6.46 mmHg and 6.78 mmHg and 7.03 mmHg; the “The number” value was 1 (3×) and 0 and 3. For the same molecule, the “initial seminal vesicle contractive latency compared with the PE model group” value in series [1] (P<0.01, P<0.001, FIG. 4) is listed as “significant increase”. In series [1] (setting [8]), the “contraction number of the corpus cavernosum muscle (conclusion)” value is on record as “decrease”, the “ejaculation latency (conclusion)” value is on record as “effectively prolong”, the “ejaculation number (conclusion)” value was “significantly decrease” and the “seminal vesicle pressure (conclusion)” value was “reduce”. Moreover, the bioavailability in series [2] is recorded as 42%.
